Paper PMC11844072, “Novel 5,6-dichlorobenzimidazole derivatives as dual BRAFWT and BRAFV600E inhibitors: design, synthesis, anti-cancer activity and molecular dynamics simulations” (BMC Chemistry, 2025)

Experiments:
Assay in all cases: NCI 60 single concentration growth inhibition
Assay type in all cases: cell-based, human
[1] = system: SF-539; details: SF-539, CNS cancer; for inhibition at 10 µM: Homo sapiens, read-out: GI%
Protocol: (§1) The synthesized dichlorobenzimidazoles 10a–p were assayed for their influence on divers cancer cell lines according to the method presented in the Additional file A.
(§2) 5. Screening of cytotoxic activity against a panel of sixty human tumor cell lines
(§3) The selected compounds by NCI were evaluated for their anticancer activity in a two-stage process. First, these compounds were screened against the full NCI 60 cell lines panel at a single high dose of 10 µM. Then, the output from the single dose screen is reported as a mean graph. […]
(§4) at five different minimal concentrations.
(§5) Assay protocol. The human tumor cell lines of the cancer screening panel are grown in RPMI 1640 medium containing 5% fetal bovine serum and 2 mM L-glutamine. For a typical screening experiment, cells are inoculated into 96 well microtiter plates in 100 µL at plating densities ranging from 5000 to 40,000 cells/well depending on the doubling time of individual cell lines. After cell inoculation, the microtiter plates are incubated at 37 °C, 5% CO 2, 95% air and 100% relative humidity for 24 h prior to addition of the experimental drugs.
(§6) After 24 h, two plates of each cell line are fixed in situ with TCA, to represent a measurement of the cell population for each cell line at the time of drug addition (Tz). The experimental drugs are solubilized in dimethyl sulfoxide at 400-fold the desired final maximum test concentration and stored frozen prior to use. At the time of drug addition, an aliquot of frozen concentrate is thawed and diluted to twice the desired final maximum test concentration with complete medium containing 50 µg/mL gentamicin. Additional four, 10-fold or ½ log serial dilutions are made to provide a total of five drug concentrations plus control.
(§7) Aliquots of […] of these different drug dilutions are added to the appropriate microtiter wells already containing […] of medium, resulting in the required final drug concentrations.
(§8) Following drug addition, the plates are incubated for an additional 48 h at 37 °C, 5% CO 2, 95% air, and 100% relative humidity. For adherent cells, the assay is terminated by the addition of cold TCA.
(§9) Cells are fixed in situ by the gentle addition of 50 µL of cold 50% (w/v) TCA (final concentration, 10% TCA) and incubated for 60 min at 4 °C. The supernatant is discarded, and the plates are washed five times with tap water and air dried. Sulforhodamine B (SRB) solution ([…]) at 0.4% (w/v) in 1% acetic acid is added to each well, and plates are incubated for 10 min at room temperature. After staining, unbound dye is removed by washing five times with 1% acetic acid and the plates are air dried. Bound stain is subsequently solubilized with 10 mM trizma base, and the absorbance is read on an automated plate reader at a wavelength of 515 nm. For suspension cells, the methodology is […]
(§10) the same except that the assay is terminated by fixing settled cells at the bottom of the wells by gently adding 50 µl of 80% TCA (final concentration, 16% TCA). Using the seven absorbance measurements [time zero, (Tz), control growth, (C), and test growth in the presence of drug at the five concentration levels (Ti)], the percentage growth is calculated at each of the drug concentrations […]
(§11) Percentage growth inhibition is calculated as: [(Ti Tz)/(C–Tz)] x 100 for concentrations for which Ti>/=Tz and [(Ti-Tz)/Tz] x 100 for concentrations for which Ti < Tz.
(§12) Three dose response parameters are calculated for each experimental agent. Growth […]
(§13) concentration resulting in a 50% reduction in the net protein increase (as measured by SRB staining) in control cells during the drug incubation. The drug concentration resulting in total growth inhibition (TGI) is calculated from Ti = Tz. […]
(§14) reduction in the measured protein at the end of the drug treatment as compared to that at the beginning) indicating a net loss of cells following treatment is calculated from [(Ti–Tz)/Tz] x 100 =
(§15) _50. Values are calculated for each of these three parameters if the level of activity is reached; […]

[2] = system: A498; details: A498, Renal cancer; for inhibition at 10 µM: Homo sapiens, read-out: GI%
Protocol: as §1, §2, §3, §4, §5, §6, §7, §8, §9, §10, §11, §12, §13, §14, §15

[3] = system: NCI-H23; details: NCI-H23, Non-small cell lung cancer; for inhibition at 10 µM: Homo sapiens, read-out: GI%
Protocol: as §1, §2, §3, §4, §5, §6, §7, §8, §9, §10, §11, §12, §13, §14, §15

[4] = system: HL-60(TB); details: Leukemia; for inhibition at 10 µM: Homo sapiens, read-out: GI%
Protocol: as §1, §2, §3, §4, §5, §6, §7, §8, §9, §10, §11, §12, §13, §14, §15

[5] = system: HOP-62; details: HOP-62, Non-small cell lung cancer; for inhibition at 10 µM: Homo sapiens, read-out: GI%
Protocol: as §1, §2, §3, §4, §5, §6, §7, §8, §9, §10, §11, §12, §13, §14, §15

[6] = system: ACHN; details: Renal cancer; for inhibition at 10 µM: Homo sapiens, read-out: GI%
Protocol: as §1, §2, §3, §4, §5, §6, §7, §8, §9, §10, §11, §12, §13, §14, §15

[7] = system: 786-0; details: 786-0, Renal cancer; for inhibition at 10 µM: Homo sapiens, read-out: GI%
Protocol: as §1, §2, §3, §4, §5, §6, §7, §8, §9, §10, §11, §12, §13, §14, §15

[8] = system: UACC-257; details: UACC-257, Melanoma; for inhibition at 10 µM: Homo sapiens, read-out: GI%
Protocol: as §1, §2, §3, §4, §5, §6, §7, §8, §9, §10, §11, §12, §13, §14, §15

[9] = system: SK-MEL-28; details: SK-MEL-28, Melanoma; for inhibition at 10 µM: Homo sapiens, read-out: GI%
Protocol: as §1, §2, §3, §4, §5, §6, §7, §8, §9, §10, §11, §12, §13, §14, §15

[10] = system: MCF7; details: MCF7, Breast cancer; for inhibition at 10 µM: Homo sapiens, read-out: GI%
Protocol: as §1, §2, §3, §4, §5, §6, §7, §8, §9, §10, §11, §12, §13, §14, §15

[11] = system: HCT-116; details: HCT-116, Colon cancer; for inhibition at 10 µM: Homo sapiens, read-out: GI%
Protocol: as §1, §2, §3, §4, §5, §6, §7, §8, §9, §10, §11, §12, §13, §14, §15

[12] = system: HS 578T; details: Breast cancer; for inhibition at 10 µM: Homo sapiens, read-out: GI%
Protocol: as §1, §2, §3, §4, §5, §6, §7, §8, §9, §10, §11, §12, §13, §14, §15

[13] = system: EKVX; details: Non-small cell lung cancer; for inhibition at 10 µM: Homo sapiens, read-out: GI%
Protocol: as §1, §2, §3, §4, §5, §6, §7, §8, §9, §10, §11, §12, §13, §14, §15

[14] = system: OVCAR-8; details: OVCAR-8, Ovarian cancer; for inhibition at 10 µM: Homo sapiens, read-out: GI%
Protocol: as §1, §2, §3, §4, §5, §6, §7, §8, §9, §10, §11, §12, §13, §14, §15

[15] = system: UACC-62; details: UACC-62, Melanoma; for inhibition at 10 µM: Homo sapiens, read-out: GI%
Protocol: as §1, §2, §3, §4, §5, §6, §7, §8, §9, §10, §11, §12, §13, §14, §15

[16] = system: CAKI-1; details: CAKI-1, Renal cancer; for inhibition at 10 µM: Homo sapiens, read-out: GI%
Protocol: as §1, §2, §3, §4, §5, §6, §7, §8, §9, §10, §11, §12, §13, §14, §15

[17] = system: MDA-MB-231/ATCC; details: Breast cancer; for inhibition at 10 µM: Homo sapiens, read-out: GI%
Protocol: as §1, §2, §3, §4, §5, §6, §7, §8, §9, §10, §11, §12, §13, §14, §15

[18] = system: CCRF-CEM; details: Leukemia; for inhibition at 10 µM: Homo sapiens, read-out: GI%
Protocol: as §1, §2, §3, §4, §5, §6, §7, §8, §9, §10, §11, §12, §13, §14, §15

[19] = system: T-47D; details: Breast cancer; for inhibition at 10 µM: Homo sapiens, T47D, read-out: GI%
Protocol: as §1, §2, §3, §4, §5, §6, §7, §8, §9, §10, §11, §12, §13, §14, §15

[20] = system: SN12C; details: Renal cancer; for inhibition at 10 µM: Homo sapiens, read-out: GI%
Protocol: as §1, §2, §3, §4, §5, §6, §7, §8, §9, §10, §11, §12, §13, §14, §15

[21] = system: BT-549; details: BT-549, Breast cancer; for inhibition at 10 µM: Homo sapiens, read-out: GI%
Protocol: as §1, §2, §3, §4, §5, §6, §7, §8, §9, §10, §11, §12, §13, §14, §15

[22] = system: OVCAR-5; details: OVCAR-5, Ovarian cancer; for inhibition at 10 µM: Homo sapiens, read-out: GI%
Protocol: as §1, §2, §3, §4, §5, §6, §7, §8, §9, §10, §11, §12, §13, §14, §15

COC(=O)COc1cc(C=NNC(=O)Cn2c(-c3ccc(OC)cc3)nc3cc(Cl)c(Cl)cc32)ccc1OC [Compound 10o, Methyl-2-(5-((2-(2-(5,6-dichloro-2-(4-methoxyphenyl)-1H-benzo[d]imidazol-1-yl)acetyl)hydrazono)methyl)-2-methoxyphenoxy)acetate]
inhibition at 10 µM [1]: 80%
inhibition at 10 µM [2]: < 5%
inhibition at 10 µM [3]: 7.03%
inhibition at 10 µM [4]: < 5%
inhibition at 10 µM [5]: < 5%
inhibition at 10 µM [6]: 71.3%
inhibition at 10 µM [7]: 11.9%
inhibition at 10 µM [8]: 41.4%
inhibition at 10 µM [9]: < 5%
inhibition at 10 µM [10]: 33.4%
inhibition at 10 µM [11]: 22.9%
inhibition at 10 µM [12]: 128%
inhibition at 10 µM [13]: 14%
inhibition at 10 µM [14]: 69.8%
inhibition at 10 µM [15]: 24.3%
inhibition at 10 µM [16]: 37%
inhibition at 10 µM [17]: 90.1%
inhibition at 10 µM [18]: 16.9%
inhibition at 10 µM [19]: 106%
inhibition at 10 µM [20]: 97.2%
inhibition at 10 µM [21]: < 5%
inhibition at 10 µM [22]: < 5%

COc1ccc(C=NNC(=O)Cn2c(-c3ccc(OC)cc3)nc3cc(Cl)c(Cl)cc32)cc1 [Compound 10d, 2-(5,6-Dichloro-2-(4-methoxyphenyl)-1H-benzo[d]imidazol-1-yl)-N'-(4-methoxybenzylidene)acetohydrazide]
inhibition at 10 µM [1]: 34.2%
inhibition at 10 µM [2]: 47.2%
inhibition at 10 µM [3]: 50.9%
inhibition at 10 µM [4]: 40.9%
inhibition at 10 µM [5]: 23.6%
inhibition at 10 µM [6]: 40.2%
inhibition at 10 µM [7]: 29.1%
inhibition at 10 µM [8]: 60.4%
inhibition at 10 µM [9]: 33.5%
inhibition at 10 µM [10]: 81.5%
inhibition at 10 µM [11]: 61.3%
inhibition at 10 µM [12]: 34.6%
inhibition at 10 µM [13]: 76.8%
inhibition at 10 µM [14]: 22.4%
inhibition at 10 µM [15]: 34.1%
inhibition at 10 µM [16]: 52%
inhibition at 10 µM [17]: 27.4%
inhibition at 10 µM [18]: 40.2%
inhibition at 10 µM [19]: 67.2%
inhibition at 10 µM [20]: 27.8%
inhibition at 10 µM [21]: 50.3%
inhibition at 10 µM [22]: 21.5%

2-(4-((2-(2-(5,6-Dichloro-2-(4-methoxyphenyl)-1H-benzo[d]imidazol-1-yl)acetyl)hydrazono)methyl) -2-methoxyphenoxy)acetic acid [Compound 10m]
GI% ([1]; 10 μM): – (GI% < 5%)
GI% ([2]; 10 μM): – (GI% < 5%)
GI% ([3]; 10 μM): 8.00%
GI% ([4]; 10 μM): – (GI% < 5%)
GI% ([5]; 10 μM): – (GI% < 5%)
GI% ([6]; 10 μM): – (GI% < 5%)
GI% ([7]; 10 μM): – (GI% < 5%)
GI% ([8]; 10 μM): – (GI% < 5%)
GI% ([9]; 10 μM): – (GI% < 5%)
GI% ([10]; 10 μM): 9.09%
GI% ([11]; 10 μM): – (GI% < 5%)
GI% ([12]; 10 μM): – (GI% < 5%)
GI% ([13]; 10 μM): – (GI% < 5%)
GI% ([14]; 10 μM): – (GI% < 5%)
GI% ([15]; 10 μM): 6.42%
GI% ([16]; 10 μM): – (GI% < 5%)
GI% ([17]; 10 μM): – (GI% < 5%)
GI% ([18]; 10 μM): – (GI% < 5%)
GI% ([19]; 10 μM): – (GI% < 5%)
GI% ([20]; 10 μM): 5.24%
GI% ([21]; 10 μM): – (GI% < 5%)
GI% ([22]; 10 μM): – (GI% < 5%)
